# Where two headings read alike, the source gives them in different places.
# How the values were obtained:
# [1] = molecular target: STAT3 (Homo sapiens, UniProt P40763); settings: in vitro; cited from earlier work
# [2] = system: breast carcinoma cell lines with constitutively active STAT3; settings: cited from earlier work
# [3] = system: human breast tumor xenografts; settings: cited from earlier work
# [4] = system: intracerebral tumors; settings: mouse, in vivo; cited from earlier work
# [5] = animals treated with JSI-124 (Fujita et al.); cited from earlier work
# [6] = system: human breast carcinoma and syngeneic murine melanoma; settings: not in carcinomas that lack constitutive expression of p-STAT3; cited from earlier work
# [7] = Toxicology of p-STAT3 inhibitors in mice (histology of systemic organs, Luxol fast blue staining of CNS axis); format: in vivo, C57BL/6J mice; settings: for histological examination of the systemic organs: treated mice
# Description: The toxicological properties of the small molecule inhibitors of p-STAT3 appear favorable. […] Because p-STAT3 blockade agents are potent immune activators, nonspecific immune reactivity in the CNS remains a consideration. […] Fujita M, Zhu X, Sasaki K, et al., Inhibition Of STAT3 Promotes The Efficacy Of Adoptive Transfer Therapy Using Type-1 CTLs By Modulation Of The Immunological Microenvironment In A Murine Intracranial Glioma, J Immunol 2008; 180:2089-2098. This lack of induced autoimmunity may be due to STAT3's role as the key regulator of the generation of Th17 cells, which are primary immune cell mediators of autoimmunity. Thus, the inhibitors of p-STAT3 may also be inhibiting the mediators of CNS autoimmunity-Th 17 responses.
# [8] = system: lymphoma and cervical cancer; settings: cited from earlier work
# [9] = system: malignant glioma xenografts (U-87 and U-373); settings: cited from earlier work
# [10] = system: CD4+CD25+ T cells (natural Tregs); test: FoxP3 expression in natural Tregs (nTreg); format: cell-based, C57BL/6J mice; settings: 0, 0.1 and 1.0 μM, 96 hours, flow cytometry (FIG. 2)
# Description: (§1) The blockade of activation of STAT3 and its subsequent nuclear translocation inhibits both tumorigenesis and tumor-mediated immunosuppression. […] CD4^+CD25^−CD62L^hi naïve T cells from C57BL/6J mice were stimulated by plate-bound anti-CD3 (2 μg/ml) and soluble anti-CD28 (2 μg/ml) in the presence of TGF-β1 (1 ng/ml) and hIL-2 (200 U/ml), with 0, 0.1, and 1.0 μM WP1066 for inducible Tregs (iTreg) differentiation. CD4^+CD25^+ T cells (natural Tregs, nTreg) were stimulated by plate-bound anti-CD3 (2 μg/ml) and soluble anti-CD28 (2 μg/ml) in the presence of hIL-2 (200 U/ml), with 0, 0.1, and 1.0 μM WP1066. Ninety-six hours after stimulation, the cells were analyzed for intracellular FoxP3 expression by flow cytometry. The percentage of FoxP3 expressing T cells is shown.
# (§2) In additional experiments, CD4^+CD25^−CD62L^hi naïve T cells from C57BL/6J mice were stimulated by plate-bound anti-CD3 (2 μg/ml) and soluble anti-CD28 (2 μg/ml) in the presence of TGF-β1 (1 ng/ml) and hIL-2 (200 U/ml), with 0, 0.1, and 1.0 μM WP1066 for inducible Tregs (iTreg) differentiation. CD4^+CD25^+ T cells (natural Tregs, nTreg) were stimulated by plate-bound anti-CD3 (2 μg/ml) and soluble anti-CD28 (2 μg/ml) in the presence of hIL-2 (200 U/ml), with 0, 0.1, and 1.0 μM WP1066. Ninety-six hours after stimulation, the cells were analyzed for intracellular FoxP3 expression by flow cytometry.
# [11] = system: microglia, systemic APCs and T cells from patients with cancer; test: WP1066 on immune cells obtained from patients with cancer; format: cell-based
# Description: We recently have shown that blocking STAT3 activity by treatment with WP1066 in microglia obtained from the CNS of patients with cancer upregulates co-stimulatory molecules (e.g., CD80, CD86). The expression of co-stimulatory molecules is necessary for T-cell proliferation, and if a T cell encounters APCs, such as microglia/microphages, without co-stimulatory molecules present, the T cells will be rendered anergic. […] Of note, this potent immune activation occurred in immune cells obtained from patients with disease refractory to other conventional immune activators, such as toll-like receptor agonists.
# [12] = system: human melanoma xenografts and syngeneic murine melanoma; test: WP1066 in melanoma xenografts and syngeneic melanoma; format: in vivo; settings: oral gavage
# Description: (§3) Iwamaru A, Szymanski S, Iwado E, et al., A Novel Inhibitor Of The STAT3 Pathway Induces Apoptosis In Malignant Glioma Cells Both In Vitro And In Vivo. Oncogene 2006; 26: 2435-2444. […] To determine whether treatment with WP1066 is efficacious against established syngeneic intracerebral tumors, C57BL/6J mice with melanoma tumors (B16) were treated by oral gavage with WP1066 starting on day 3 after tumor implantation. […] Kong L Y, Abou-Ghazal M K, Wei J, et al., A Novel Inhibitor Of STAT3 Activation Is Efficacious Against Established Central Nervous System Melanoma And Inhibits Regulatory T Cells, Clin Cancer Res (Submitted).
# [13] = system: CD4+CD25−CD62Lhi naïve T cells; test: FoxP3 induction during inducible Treg (iTreg) differentiation; format: cell-based, C57BL/6J mice; settings: 0, 0.1 and 1.0 μM, 96 hours, flow cytometry (FIG. 2)
# Description: as §1, §2
# [14] = set-up: species or system CD1 mice; settings: in vivo; for mean peak plasma concentration: CD1, mouse, iv
# Description: Of central importance to the treatment of CNS gliomas and metastasis is the use of agents with sufficient CNS permeability and subsequent cytotoxic activity, of which there is direct evidence for WP1066 and indirect evidence for JSI-124. To determine the physiological doses of WP1066 that can be achieved in vivo, CD1 mice were given WP1066 as an intravenous bolus (10 or 40 mg/kg) or by oral gavage (40 mg/kg) and killed at various time points up to 24 hours after treatment. […] When WP1066 was delivered intraperitoneally at a dose of 100 mg/kg or intravenously at a dose of 10 mg/kg every other day for up to 2 weeks, plasma concentrations exceeded 1 μM, and CNS concentrations (with an intact blood-brain barrier) exceeded 62 μg/g of tissue (0.185 μM); concentrations in U87-MG malignant glioma-bearing animals exceeded 362 μg/g (1.08 μM). […] Fujita M, Zhu X, Sasaki K, et al., Inhibition Of STAT3 Promotes The Efficacy Of Adoptive Transfer Therapy Using Type-1 CTLs By Modulation Of The Immunological Microenvironment In A Murine Intracranial Glioma, J Immunol 2008; 180:2089-2098.
# [15] = system: head and neck carcinoma (MDA1986), pancreatic cancer (MiaPaca2), bladder cancer, glioma (U-87), lymphoma, myeloma, leukemia; settings: 40 mg/kg intraperitoneally every other day for 28 days; cited from earlier work
# [16] = system: melanoma tumors (B16); test: WP1066 against established syngeneic intracerebral tumors; format: in vivo, C57BL/6J mice
# Description: as §3
# Fujita M, Zhu X, Sasaki K, et al., Inhibition Of STAT3 Promotes The Efficacy Of Adoptive Transfer Therapy Using Type-1 CTLs By Modulation Of The Immunological Microenvironment In A Murine Intracranial Glioma, J Immunol 2008; 180:2089-2098. […] Furthermore, when JSI-124 was combined with adoptive transfer of type I cytotoxic T lymphocytes, survival was further enhanced compared with treatment with either modality alone. The authors concluded that the inhibition of STAT3 could reverse the immune-suppressive immune microenvironment and promote the efficacy of adoptive transfer therapy. Id.
# [17] = system: human lung cancer xenografts; settings: cited from earlier work
# [18] = system: STAT3 in HaCaT keratinocytes; test: pSTAT3 level in HaCaT keratinocytes (MSD chemiluminescent detection); format: cell-based, human; settings: for Relative level of pSAT3: HaCaT cells, stimuli for 30 minutes
# Description: Prior to experiments, the DMEM medium was changed to KGM-SFM containing rEGF and bovine pituitary extract for 12 hours, and the cells then exposed to various stimuli for 30 minutes. Cell lysates were extracted in IP lysis buffer were diluted in MSD extraction buffer and 25 uL of the cell lysate containing 10 ug protein was used in the analysis via chemiluminescent detection (MSD Technology). To test for inhibition by WP1220 (WP), cells were pre-incubated with WP1220 prior to the addition of IFN α.
# Chain of STAT3 (P40763 whole entry, species assumed): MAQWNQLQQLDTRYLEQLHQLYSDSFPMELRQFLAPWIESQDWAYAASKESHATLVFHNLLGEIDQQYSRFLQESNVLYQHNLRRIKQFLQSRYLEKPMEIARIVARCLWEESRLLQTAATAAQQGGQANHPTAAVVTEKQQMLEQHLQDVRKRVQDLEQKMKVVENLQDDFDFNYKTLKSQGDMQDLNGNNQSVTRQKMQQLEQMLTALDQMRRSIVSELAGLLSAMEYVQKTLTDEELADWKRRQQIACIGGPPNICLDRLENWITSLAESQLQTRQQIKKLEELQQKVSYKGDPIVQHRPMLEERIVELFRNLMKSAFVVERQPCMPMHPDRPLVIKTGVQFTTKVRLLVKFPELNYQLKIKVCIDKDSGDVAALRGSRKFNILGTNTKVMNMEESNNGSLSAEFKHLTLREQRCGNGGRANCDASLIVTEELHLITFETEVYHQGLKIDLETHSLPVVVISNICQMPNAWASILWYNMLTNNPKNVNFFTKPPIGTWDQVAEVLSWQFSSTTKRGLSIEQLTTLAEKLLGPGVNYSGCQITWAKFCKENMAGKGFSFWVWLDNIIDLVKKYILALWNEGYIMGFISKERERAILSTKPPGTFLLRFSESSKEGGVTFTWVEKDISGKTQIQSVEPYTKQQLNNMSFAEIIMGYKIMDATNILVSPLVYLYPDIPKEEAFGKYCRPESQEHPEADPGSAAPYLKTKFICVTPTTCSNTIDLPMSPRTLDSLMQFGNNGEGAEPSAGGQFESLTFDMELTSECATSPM
compound,measurement,setting,value
"N#C/C(=C\c1ccc(O)c(O)c1)C(=O)NCc1ccccc1 [AG490, (E)-N-benzyl-2-cyano-3-(3,4-dihydroxyphenyl)acrylamide]",IC50,[1],> 50 µM
Cc1ccc(S(=O)(=O)OCC(=O)Nc2ccc(C(=O)O)c(O)c2)cc1 [Example S31-301],growth and apoptosis,[2],inhibit growth and induce apoptosis preferentially
same,in vivo tumor growth,[3],suppress the in vivo growth of human breast tumor xenografts
"CC(C)(O)/C=C/C(=O)[C@](C)(O)[C@H]1[C@H](O)C[C@@]2(C)[C@@H]3CC=C4[C@@H](C=C(O)C(=O)C4(C)C)[C@]3(C)C(=O)C[C@]12C [JSI-124, cucurbitacin I]",survival,[4],prolonged survival
same,induced autoimmunity,[5],no evidence of induced autoimmunity
same,in vivo tumor growth,[6],inhibit the in vivo growth of human breast carcinoma and syngeneic murine melanoma
same,histological examination of the systemic organs,[7],failed to reveal any major toxicities
same,in vitro activity,[8],in vitro activity against lymphoma and cervical cancer
"C[C@H](NC(=O)/C(C#N)=C/c1cccc(Br)n1)c1ccccc1 [WP1066, (S,E)-3-(6-bromopyridin-2-yl)-2-cyano-N-(1-phenylethyl)acrylamide]",duration of p-STAT3 inhibition in excised tumors after the final injection,[9]; immunohistochemical analysis,at least 3 weeks
same,tumor growth,"[9]; systemic intraperitoneal administration, 30-day follow-up",significant inhibition of tumor growth
same,FoxP3 in natural Tregs,[10],down-regulates FoxP3
same,immune-suppressive cytokines such as TGF-β,[11],inhibits
same,"production of pro-inflammatory cytokines (IL-2, IL-4, IL-12, IL-15) by systemic APCs",[11]; immune-suppressed patients,induces
same,"co-stimulatory molecules (CD80, CD86) on microglia",[11]; microglia from the CNS of patients with cancer,upregulates
same,tumor growth,[12],marked growth suppression
same,FoxP3 induction in T cells,[13],inhibiting FoxP3 induction
same,mean peak plasma concentration,[14]; 10 mg/kg,1.05 µM
same,mean peak plasma concentration,[14]; 40 mg/kg,4.31 µM
same,mean peak plasma concentration (oral bioavailability studies),"[14]; mouse, po, 40 mg/kg",greater than 2 μM
same,tumor growth,[15],statistically significant suppression of tumor growth
same,induction of autoimmunity in CNS (Luxol fast blue staining),[7]; C57BL/6J mice,no evidence of induction of autoimmunity
same,local tolerability,"[7]; mouse, in vivo",localized inflammatory responses
same,histological examination of the systemic organs,[7],failed to reveal any major toxicities
same,in vivo efficacy in immune-incompetent background,"[16]; established intracerebral tumors, immune-incompetent background",ablated
same,animals surviving long-term,"[16]; oral gavage starting on day 3 after tumor implantation, vehicle control 0%",80%
Cucurbitacin Q,in vivo tumor growth,[17],suppressed in vivo growth of human lung cancer xenografts
"EGF: growth factor, stimulus in HaCaT pSTAT3 test (NSDSECPLSHDGYCLHDGVCMYIEALDKYACNCVVGYIGERCQYRDLKWWELR; Epidermal growth factor; UniProt P01133 971-1023, looked up)",Relative level of pSAT3,[18],+ (+=less than 200 fold)
"IL-6: cytokine, stimulus in HaCaT pSTAT3 test",STAT3 activation in keratinocytes,[18],potently induce STAT3 activation
same,Relative level of pSAT3,[18],+++++ (+++++=400-500 fold)
"bFGF: basic fibroblast growth factor, stimulus in HaCaT pSTAT3 test",Relative level of pSAT3,[18],+ (+=less than 200 fold)

# — US20130129675A1, “INTERFERON THERAPIES IN COMBINATION WITH BLOCKADE OF STAT3 ACTIVATION” (BOARD OF REGENTS, THE UNIVERSITY OF TEXAS SYSTEM, priority 2009, published 2013)
